# Laboratory results: patent publication US9549926B2, “Compositions and methods of treating pulmonary hypertension” (Gilead Sciences, Inc., priority 2010, dated 2017)
# pIC50, pKi: −log10 of the molar value. Read-outs that look alike come from different tables or passages of the source.
# Columns and labels:
# [1] = Free plasma concentration in the rat PAH study; type: in vivo; conditions: Sprague-Dawley, read-out: free or unbounded plasma concentration
# Protocol: (§1) Rats were dosed with vehicle (0.5% hydroxypropyl methylcellulose (HPMC), 0.2% Tween 80, and 0.9% benzyl alcohol in water), AMB or TAD (quaque die) beginning the day they were placed in chambers. Plasma was collected when animals were terminated.
# The free or unbounded plasma concentration for 10 mpk AMB dosing was about 104 nM in both cases. The free or unbounded plasma concentrations of TAD was about 24 nM when administered separately, or about 26 nM when administered with AMB, whether 1 mpk or 10 mpk.
# [2] = test system: ET-1-induced contraction of endothelium-denuded pulmonary arterial rings; assay: ET-1-induced contraction of endothelium-denuded pulmonary arterial rings; type: cell-based, rat; conditions: FIG. 5, 10 nM ambrisentan, 30 nM tadalafil, n=4
# Protocol: (§2) Intrapulmonary arteries (200-500 μm) and aortas were isolated from Sprague Dawley rats (300-320 g) and cut into 1-2 mm rings. Rings were mounted in a myograph and constricted with a submaximal concentration (8 nM) of ET-1. Ambrisentan, Bosentan, Macitentan and Tadalafil alone and in combination were evaluated in ET-constricted rings.
# ETA receptor = molecular target: T1, ETA receptor (Homo sapiens, UniProt P25101); conditions: read-out: affinity for the ETA receptor; cited from earlier work
# T1 sequence (P25101 21-427): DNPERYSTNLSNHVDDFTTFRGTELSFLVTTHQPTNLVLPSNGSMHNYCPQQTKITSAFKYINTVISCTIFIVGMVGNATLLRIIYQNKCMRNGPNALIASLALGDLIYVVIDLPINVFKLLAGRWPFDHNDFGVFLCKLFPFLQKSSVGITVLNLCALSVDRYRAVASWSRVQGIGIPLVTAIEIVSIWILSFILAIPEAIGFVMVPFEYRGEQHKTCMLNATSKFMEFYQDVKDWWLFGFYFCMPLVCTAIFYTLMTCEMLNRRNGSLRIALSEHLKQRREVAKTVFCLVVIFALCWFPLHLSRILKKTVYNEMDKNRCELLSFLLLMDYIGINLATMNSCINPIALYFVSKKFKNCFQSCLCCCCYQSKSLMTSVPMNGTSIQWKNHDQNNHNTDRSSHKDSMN
# [3] = test system: ET-1-induced contraction of endothelium-denuded aortic rings; assay: ET-1-induced contraction of endothelium-denuded aortic rings; type: cell-based, rat; conditions: 10 nM ambrisentan, n=4
# Protocol: as §2
# [4] = test system: ET-1-induced contraction of rat intact thoracic aortic rings; assay: Ex-vivo vascular function assay: relaxation of ET-1-contracted intact rat thoracic aortic rings; type: cell-based; conditions: for relaxation of intact thoracic aortic rings in the presence of ET-1: Example 1, FIG. 1, 8 nM ET-1, 10 nM ambrisentan, 30 nM tadalafil, alone or in combination, n=3; for pIC50: Rattus norvegicus, read-out: IC50 to relax ET-1 constricted aortic rings
# Protocol: as §2, with “The combination of both 10 nM ambrisentan and 30 nM tadalafil relaxed the ET-1-induced contraction of the intact thoracic aortic rings by 81±7% (FIG. 1, n=3; P<0.01 vs. mono-administration of ambrisentan or tadalafil). […] Intrapulmonary” for “Intrapulmonary”
# [5] = test system: ET-1-induced contraction of rat intact intrapulmonary arterial rings; assay: Ex-vivo vascular function assay: relaxation of ET-1-contracted intact rat intrapulmonary arterial rings; type: cell-based; conditions: 8 nM ET-1, 10 nM ambrisentan, 30 nM tadalafil, alone or in combination, mean±SEM
# Protocol: The selective type-A endothelin receptor antagonist, ambrisentan ([…]®), and the phosphodiesterase type 5 inhibitor, tadalafil ([…]®), are currently used to treat pulmonary arterial hypertension. Isolated rat intact intrapulmonary arterial rings contracted with 8 nM endothelin-1 (ET-1) were relaxed by 10 nM ambrisentan (from Gilead Sciences, Inc.) and 30 nM tadalafil (from Sequoia Research Products Ltd. Pangbourne, UK) by 30±13% (mean±SEM, n=3) and 12±5% (n=3), respectively, whereas both drugs in combination relaxed the intact intrapulmonary arterial rings by […] (FIG. 1, n=3, P<0.01 vs. mono-administration of ambrisentan or tadalafil). Intrapulmonary arteries (200-500 μm) and aortas were isolated from Sprague Dawley rats (300-320 g) and cut into 1-2 mm rings. Rings were mounted in a myograph and constricted with a submaximal concentration (8 nM) of ET-1. Ambrisentan, Bosentan, Macitentan and Tadalafil alone and in combination were evaluated in ET-constricted rings. Isolated rat intact intrapulmonary arterial rings contracted with 8 nM endothelin-1 (ET-1) were relaxed by 10 nM ambrisentan and 30 nM tadalafil by 29±1% (mean±SEM, n=4) and 22±2% (n=4), respectively, whereas both drugs in combination relaxed the intact intrapulmonary arterial rings by 85±3% (FIG. 2, n=4, P<0.01 vs. mono-administration of ambrisentan or tadalafil).
# [6] = test system: hypoxia-induced mean pulmonary arterial pressure (mPAP) in male SD rats; assay: Hypoxia-induced pulmonary arterial hypertension (PAH) animal model; type: in vivo; conditions: 3 wks hypoxia, rat
# Protocol: as §1, with “Male SD Rats (225-250 g) were housed in chambers under normoxic (sea level) or hypoxic (10% oxygen) conditions for 3 weeks. Rats” for “Rats”, “terminated. [table]” for “terminated.”
# [7] = Example 2, FIG. 2, 100 nM bosentan, 30 nM macitentan
Structure (SMILES),"concentration at 3 weeks ([1]; 1 mpk, AMB 1 mpk, administered separately)","concentration at 3 weeks ([1]; AMB 1 mpk, administered along with TAD)","concentration at 3 weeks ([1]; AMB 10 mpk, separately or with TAD (both cases))",reduction of contraction induced by ET-1 [2],pKi (ETA receptor),reduction of contraction induced by ET-1 [3],relaxation of intact thoracic aortic rings in the presence of ET-1 [4],"relaxation of intact intrapulmonary arterial rings contracted with ET-1 ([5]; Example 1, FIG. 1, n=3)","relaxation of intact intrapulmonary arterial rings contracted with ET-1 [5, 7]",inhibition of PAP (mPAP±SEM) ([6]; 1 mpk AMB once daily),inhibition of PAP (mPAP±SEM) ([6]; 10 mpk AMB once daily),"concentration at 3 weeks ([1]; 10 mpk, TAD (10 mpk), administered separately)","concentration at 3 weeks ([1]; TAD (10 mpk), administered with AMB, 1 mpk or 10 mpk)",pIC50 ([4]; in the presence of 10 nM ambrisentan),pIC50 ([4]; tadalafil alone),inhibition of PAP (mPAP±SEM) ([6]; 10 mpk TAD once daily)
"COC(c1ccccc1)(c1ccccc1)[C@H](Oc1nc(C)cc(C)n1)C(=O)O [ambrisentan, (2S)-2-[(4,6-dimethylpyrimidin-2-yl)oxy]-3-methoxy-3,3-diphenylpropanoic acid]",~17 nM,~13 nM,~104 nM,23±4%,~10.92,26±7%,32±3%,30±13%,29±1%,28.4±1.1%,42.1±2.4%,–,–,–,–,–
COc1ccccc1Oc1c(NS(=O)(=O)c2ccc(C(C)(C)C)cc2)nc(-c2ncccn2)nc1OCCO [bosentan],–,–,–,–,–,–,–,–,25±1%,–,–,–,–,–,–,–
CCCNS(=O)(=O)Nc1ncnc(OCCOc2ncc(Br)cn2)c1-c1ccc(Br)cc1 [macitentan],–,–,–,–,–,–,–,–,31±2%,–,–,–,–,–,–,–
"CN1CC(=O)N2[C@H](c3ccc4c(c3)OCO4)c3[nH]c4ccccc4c3C[C@@H]2C1=O [tadalafil, (6R-trans)-6-(1,3-benzodioxol-5-yl)-2,3,6,7,12,12a-hexahydro-2-methyl-pyrazino [1′, 2′:1,6] pyrido[3,4-b]indole-1,4-dione]",–,–,–,failed to inhibit contraction,–,failed to inhibit contraction,16±4%,12±5%,22±2%,–,–,~24 nM,~26 nM,7.80,7.10,23.2±1.3%
